Here are results for 1 molecule from EPA's ToxValDB 9.5 (doi:10.2903/j.efsa.2020.6151).

One series relates to Apis mellifera. The conditions noted are these: acute, mortality.
A further series concerns Pimephales promelas. The conditions noted are these: chronic/long-term; duration: 33 days; other.
Another series has as its system Bibionidae. The conditions noted are these: chronic/long-term; duration: 28 days; seedling emergence.
In the next series the test system is Colinus virginianus. The conditions noted are these: for LD50: acute, oral, mortality.
In the next series the test system is Daphnia magna. The conditions noted are these: chronic/long-term; duration: 21 days; other.
A further series deals with Folsomia candida. The conditions noted are these: chronic/long-term; duration: 28 days; reproduction.
For a further series, the system named is Typhlodromus pyri. Put plainly: LR50; higher = less toxic. The conditions noted are these: not reported; mortality.

A word on the NOAEL: it is the highest dose or exposure tested at which no adverse effect was seen. As to `C#CCOC(=O)[C@@H](C)Oc1ccc(Oc2ncc(Cl)cc2F)cc1` [Clodinafop-propargyl], the LD50 with Apis mellifera (dermal) was greater than 100 µg/piece; in the series with Apis mellifera (oral, unspecified) it was greater than 104 µg/piece; in the series on Colinus virginianus (duration: 5 days, diet), greater than 1040 mg/kg-day; in the series on Colinus virginianus, 1460 mg/kg; in the series with Rattus norvegicus (acute, oral, mortality), greater than 1390 mg/kg. Also, the NOEC in the series with Pimephales promelas came out at 0.024 mg/L; with Bibionidae, 1.2 mg/L; in the series on Colinus virginianus (reproduction developmental), 48.9 mg/kg-day; with Daphnia magna, 0.23 mg/L; in the series on Folsomia candida, 1.6 mg/kg. Besides, the NOAEL was found to be 0.03 mg/kg-day in the series on Rattus norvegicus (chronic, duration: 2 years, M, histopathology: neoplastic); 5 mg/kg-day with Rattus norvegicus (developmental, development); 3.4 mg/kg-day in the series with Rattus norvegicus (reproduction developmental, body weight); 0.92 mg/kg-day in the series on Rattus norvegicus (subchronic, duration: 90 days, organ weight). The molecule further registered an LR50 with Typhlodromus pyri greater than 90 g/ha.
